What was measured:
[1] = target: KRAS G12D (Homo sapiens, UniProt P01116, G12D); assay: GDP-GTP exchange assay (bodipy-GDP/GppNHp, SOS1), KRAS G12D; assay type: biochemical; settings: 2.5 nM bodipy-loaded KRAS G12D, 4 h pre-incubation, 2 h reaction with GppNHp and SOS1; for certain compounds the most potent isomer is quoted; read-out: KRAS_G12D exchange assay IC50
Experimental: (§1) The inhibitor potency of the exemplified compounds was determined in a fluorescence based guanine nucleotide exchange assay, which measures the exchange of bodipy-GDP (fluorescently labeled GDP) for GppNHp (Non-hydrolyzable GTP analog) to generate the active state of KRAS in the presence of SOS1 (guanine nucleotide exchange factor). Inhibitors were serially diluted in DMSO and a volume of 0.1 μL was transferred to the wells of a black low volume 384-well plate. 5 µL/well volume of bodipy-loaded KRAS G12D diluted to 2.5 nM in assay buffer (25 mM Hepes pH 7.5, 50 mM NaCl, 10 mM MgCl2 and 0.01% Brij-35) was added to the plate and pre-incubated with inhibitor for 4 h at r.t. Appropriate controls (enzyme with no inhibitor or with a G12D inhibitor) were included on the plate. The exchange was initiated by the addition of a 5 μL/well volume containing 1 mM GppNHp and 300 nM SOS1 in assay buffer. The 10 μL/well reaction concentration of the bodipy-loaded KRAS G12D, GppNHp, and SOS1 were 2.5 nM, 500 μM, and 150 nM, respectively. The reaction plates were incubated at r.t. for 2 h, a time estimated for complete GDP-GTP exchange in the absence of inhibitor. For the KRAS G12V mutant, similar guanine nucleotide exchange assays were used with 2.5 nM as final concentration for the bodipy loaded KRAS proteins and 3 h incubation after adding GppNHp-SOS1 mixture. A cyclic peptide described to selectively bind G12D mutant (Sakamoto et al., BBRC 484.3 (2017), 605-611) or internal compounds with confirmed binding were used as positive controls in the assay plates. Fluorescence intensities were measured on a PheraStar plate reader instrument (BMG Labtech) with excitation at 485 nm and emission at 520 nm.
(§2) Either GraphPad prism or Genedata Screener SmartFit was used to analyze the data. The IC50 values were derived by fitting the data to a four parameter logistic equation producing a sigmoidal dose-response curve with a variable Hill coefficient.
(§3) The symbol “†” indicates IC50≤100 nM, “††” indicates IC50>100 nM but ≤1 μM; and “†††” indicates IC50 is >1 μM but ≤5 μM, “††††” indicates IC50 is >5 µM but ≤10 μM. “NA” indicates IC50 not available.

[2] = target: KRAS G12V (Homo sapiens, UniProt P01116, G12V); assay: GDP-GTP exchange assay (bodipy-GDP/GppNHp, SOS1), KRAS G12V; assay type: biochemical; settings: 2.5 nM bodipy-loaded KRAS G12V, 3 h incubation after adding GppNHp-SOS1; for certain compounds the most potent isomer is quoted; read-out: KRAS_G12V exchange assay IC50
Experimental: as §1, §2, §3

Chain of KRAS G12D (P01116 1-188 isoform P01116-2 G12D): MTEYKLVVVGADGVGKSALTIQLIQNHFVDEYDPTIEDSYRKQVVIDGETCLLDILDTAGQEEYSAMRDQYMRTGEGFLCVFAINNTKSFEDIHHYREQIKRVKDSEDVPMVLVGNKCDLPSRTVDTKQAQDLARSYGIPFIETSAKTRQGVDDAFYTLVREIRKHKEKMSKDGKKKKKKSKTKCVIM
Chain of KRAS G12V (P01116 1-188 isoform P01116-2 G12V): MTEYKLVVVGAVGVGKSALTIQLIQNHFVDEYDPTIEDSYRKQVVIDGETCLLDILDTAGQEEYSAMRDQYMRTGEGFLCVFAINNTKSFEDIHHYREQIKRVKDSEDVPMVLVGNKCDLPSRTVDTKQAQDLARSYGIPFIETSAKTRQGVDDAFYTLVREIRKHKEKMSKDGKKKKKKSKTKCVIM

What does the source list for `Cc1nc2c(F)c(-c3cccc(Cl)c3Cl)c(CCC#N)cc2c2c1cc([C@H]1[C@H]3C[C@H](C[C@@H]3F)N1C(=O)C1CC1)n2C1[C@H]2CN[C@@H]1C2` (stereo partly drawn) [Example 20, 3-(1-((1R,4R)-2-azabicyclo[2.1.1]hexan-5-yl)-2-((1R,3R,4R,5S)-2-(cyclopropanecarbonyl)-5-fluoro-2-azabicyclo[2.2.1]heptan-3-yl)-7-(2,3-dichlorophenyl)-6-fluoro-4-methyl-1H-pyrrolo[3,2-c]quinolin-8-yl)propanenitrile]?
IC50 [1]: ≤ 100 nM; IC50 [2]: ≤ 100 nM

For `Cc1nc2c(F)c(-c3cccc(Cl)c3Cl)c(CCC#N)cc2c2c1cc([C@H]1[C@@H]3CC[C@@H](C3)N1C(=O)C1CC1)n2[C@H]1[C@H]2CN[C@@H]1C2` [Example 11, 3-(1-((1R,4R,5S)-2-azabicyclo[2.1.1]hexan-5-yl)-2-((1S,3R,4R)-2-(cyclopropanecarbonyl)-2-azabicyclo[2.2.1]heptan-3-yl)-7-(2,3-dichlorophenyl)-6-fluoro-4-methyl-1H-pyrrolo[3,2-c]quinolin-8-yl)propanenitrile], which IC50 [1] is on record?
Its IC50 is ≤ 100 nM.

What about the IC50 [2] of the same compound?
The IC50 was ≤ 100 nM.

For `Cc1nc2c(F)c(-c3cccc(Cl)c3Cl)c(CCC#N)cc2c2c1cc([C@H]1[C@H]3C[C@H](C[C@@H]3OC(F)F)N1C(=O)C1(F)CC1)n2[C@H]1[C@H]2CN[C@@H]1C2` [Example 35, 3-(1-((1R,4R,5S)-2-Azabicyclo[2.1.1]hexan-5-yl)-7-(2,3-dichlorophenyl)-2-((1R,3R,4R,5S)-5-(difluoromethoxy)-2-(1-fluorocyclopropane-1-carbonyl)-2-azabicyclo[2.2.1]heptan-3-yl)-6-fluoro-4-methyl-1H-pyrrolo[3,2-c]quinolin-8-yl)propanenitrile], which IC50 [1] is on record?
Its IC50 is ≤ 100 nM.

How did the IC50 [1] turn out when `Cc1nc2c(F)c(-c3cccc(Cl)c3Cl)c(CCC#N)cc2c2c1cc([C@H]1[C@H]3C[C@H](C[C@H]3C)N1C(=O)C1CC1)n2C1[C@H]2CN[C@@H]1C2` (stereo partly drawn) [Example 18, 3-(1-((1R,4R)-2-azabicyclo[2.1.1]hexan-5-yl)-2-((1S,3R,4S,5R)-2-(cyclopropanecarbonyl)-5-methyl-2-azabicyclo[2.2.1]heptan-3-yl)-7-(2,3-dichlorophenyl)-6-fluoro-4-methyl-1H-pyrrolo[3,2-c]quinolin-8-yl)propanenitrile] was run?
The IC50 was ≤ 100 nM.

What about the IC50 [2] of the same compound?
The IC50 was ≤ 100 nM.

For `Cc1nc2c(F)c(-c3cccc(Cl)c3Cl)c(CCC#N)cc2c2c1cc([C@H]1[C@H]3C[C@H](C[C@@H]3OCc3ccccc3)N1C(=O)C1CC1)n2[C@H]1[C@H]2CN[C@@H]1C2` (atropisomer, axis not shown; (Ra)) [Example 6, 3-((Ra)-2-((1R,3R,4R,5S)-5-(Benzyloxy)-2-(cyclopropanecarbonyl)-2-azabicyclo[2.2.1]heptan-3-yl)-1-((1R,4R,5S)-2-azabicyclo[2.1.1]hexan-5-yl)-7-(2,3-dichlorophenyl)-6-fluoro-4-methyl-1H-pyrrolo[3,2-c]quinolin-8-yl)propanenitrile], which IC50 [1] is on record?
Its IC50 is ≤ 100 nM.

And the IC50 [2]?
The IC50 was ≤ 100 nM.

Which results are given for `Cc1nc2c(F)c(-c3cccc(Cl)c3Cl)c(CCC#N)cc2c2c1cc([C@H]1[C@H]3C[C@H](C[C@@H]3OC(F)(F)F)N1C(=O)C1CC1)n2[C@H]1[C@H]2CN[C@@H]1C2` (atropisomer, axis not shown; (Ra)) [Example 41, 3-((Ra)-1-((1R,4R,5S)-2-Azabicyclo[2.1.1]hexan-5-yl)-2-((1R,3R,4R,5S)-2-(cyclopropanecarbonyl)-5-(trifluoromethoxy)-2-azabicyclo[2.2.1]heptan-3-yl)-7-(2,3-dichlorophenyl)-6-fluoro-4-methyl-1H-pyrrolo[3,2-c]quinolin-8-yl)propanenitrile]?
IC50 [1]: ≤ 100 nM; IC50 [2]: ≤ 100 nM

Which results are given for `C[C@@H](O)c1nc2c(F)c(-c3cccc(Cl)c3Cl)c(CCC#N)cc2c2c1cc([C@H]1[C@H]3C[C@H](C[C@H]3Cl)N1C(=O)C1(F)CC1)n2[C@H]1[C@H]2CN[C@@H]1C2` (atropisomer, axis not shown) [Example 33, 3-((R)-1-((1R,4R,5S)-2-azabicyclo[2.1.1]hexan-5-yl)-2-((1R,3R,4R,5R)-5-chloro-2-(1-fluorocyclopropane-1-carbonyl)-2-azabicyclo[2.2.1]heptan-3-yl)-7-(2,3-dichlorophenyl)-6-fluoro-4-((R)-1-hydroxyethyl)-1H-pyrrolo[3,2-c]quinolin-8-yl)propanenitrile]?
IC50 [1]: ≤ 100 nM; IC50 [2]: ≤ 100 nM

`Cc1nc2c(F)c(-c3cccc(Cl)c3Cl)c(CCC#N)cc2c2c1cc([C@H]1[C@H]3C[C@H](C[C@@H]3OCc3ccccc3)N1C(=O)C1CC1)n2C1[C@H]2CN[C@@H]1C2` (stereo partly drawn) [Example 29, 3-(2-((1R,3R,4R,5S)-5-(benzyloxy)-2-(cyclopropanecarbonyl)-2-azabicyclo[2.2.1]heptan-3-yl)-1-((1R,4R)-2-azabicyclo[2.1.1]hexan-5-yl)-7-(2,3-dichlorophenyl)-6-fluoro-4-methyl-1H-pyrrolo[3,2-c]quinolin-8-yl)propanenitrile] was tested. Which IC50 [1] did it give?
Its IC50 is ≤ 100 nM.

And the IC50 [2]?
Its IC50 is ≤ 100 nM.

With `CO[C@H]1C[C@H]2C[C@@H]1[C@H](c1cc3c(C)nc4c(F)c(-c5cccc(Cl)c5Cl)c(CCC#N)cc4c3n1[C@H]1[C@H]3CN[C@@H]1C3)N2C(=O)C1CC1` [Example 15, 3-(1-((1R,4R,5S)-2-azabicyclo[2.1.1]hexan-5-yl)-2-((1R,3R,4R,5S)-2-(cyclopropanecarbonyl)-5-methoxy-2-azabicyclo[2.2.1]heptan-3-yl)-7-(2,3-dichlorophenyl)-6-fluoro-4-methyl-1H-pyrrolo[3,2-c]quinolin-8-yl)propanenitrile] as the compound, how does the IC50 [1] read?
Its IC50 is ≤ 100 nM.

And the IC50 [2]?
The IC50 was ≤ 100 nM.

What does the source list for `Cc1nc2c(F)c(-c3cccc(Cl)c3Cl)c(CCC#N)cc2c2c1cc([C@H]1[C@H]3C[C@H](C[C@H]3O)N1C(=O)C1CC1)n2C1[C@H]2CN[C@@H]1C2` (stereo partly drawn) [Example 21, 3-(1-((1R,4R)-2-azabicyclo[2.1.1]hexan-5-yl)-2-((1R,3R,4R,5R)-2-(cyclopropanecarbonyl)-5-hydroxy-2-azabicyclo[2.2.1]heptan-3-yl)-7-(2,3-dichlorophenyl)-6-fluoro-4-methyl-1H-pyrrolo[3,2-c]quinolin-8-yl)propanenitrile]?
IC50 [1]: 100 to 1000 nM; IC50 [2]: 100 to 1000 nM

With `Cc1nc2c(F)c(-c3cccc(Cl)c3Cl)c(CCC#N)cc2c2c1cc([C@H]1[C@H]3C[C@H](C[C@@H]3C(F)F)N1C(=O)C1CC1)n2[C@H]1[C@H]2CN[C@@H]1C2` (atropisomer, axis not shown; (Ra)) [Example 9, 3-((Ra)-1-((1R,4R,5S)-2-Azabicyclo[2.1.1]hexan-5-yl)-2-((1R,3R,4S,5S)-2-(cyclopropanecarbonyl)-5-(difluoromethyl)-2-azabicyclo[2.2.1]heptan-3-yl)-7-(2,3-dichlorophenyl)-6-fluoro-4-methyl-1H-pyrrolo[3,2-c]quinolin-8-yl)propanenitrile] as the compound, how does the IC50 [1] read?
The IC50 was ≤ 100 nM.

What about the IC50 [2] of the same compound?
The IC50 was ≤ 100 nM.

`C[C@@H](O)c1nc2c(F)c(-c3cccc(Cl)c3Cl)c(CCC#N)cc2c2c1cc([C@H]1[C@H]3C[C@H](C[C@@H]3OC3CC3)N1C(=O)C1(F)CC1)n2[C@H]1[C@H]2CN[C@@H]1C2` (single isomer, unassigned) [Example 38] was tested. Which IC50 [1] did it give?
The IC50 was ≤ 100 nM.

And the IC50 [2]?
The IC50 was ≤ 100 nM.

`C[C@@H](O)c1nc2c(F)c(-c3cccc(Cl)c3Cl)c(CCC#N)cc2c2c1cc([C@H]1[C@H]3C[C@H](C[C@@H]3OC(F)F)N1C(=O)C1(F)CC1)n2[C@H]1[C@H]2CN[C@@H]1C2` (single isomer, unassigned) [Example 37] was tested. Which IC50 [1] did it give?
Its IC50 is ≤ 100 nM.

What about the IC50 [2] of the same compound?
The IC50 was ≤ 100 nM.

With `CO[C@H]1C[C@H]2C[C@@H]1[C@H](c1cc3c(C)nc4c(F)c(-c5cccc(Cl)c5Cl)c(CCC#N)cc4c3n1[C@H]1[C@H]3CN[C@@H]1C3)N2C(=O)C1CC1` (atropisomer, axis not shown; (Ra)) [Example 1, 3-((Ra)-1-((1R,4R,5S)-2-Azabicyclo[2.1.1]hexan-5-yl)-2-((1R,3R,4R,5S)-2-(cyclopropanecarbonyl)-5-methoxy-2-azabicyclo[2.2.1]heptan-3-yl)-7-(2,3-dichlorophenyl)-6-fluoro-4-methyl-1H-pyrrolo[3,2-c]quinolin-8-yl)propanenitrile] as the compound, how does the IC50 [1] read?
The IC50 was ≤ 100 nM.

From patent US20240368156A1, “2-AZABICYCLO[2.2.1]HEPTANE KRAS INHIBITORS” (INCYTE CORPORATION, priority 2023, published 2024)
